According to PubChem BioAssay (NCI):
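Following 48 hours of exposure in 96-well plates, responses at five concentrations were used to interpolate endpoints linearly. The concentration for 50% growth inhibition is given as GI50. TGI: concentration producing complete growth inhibition.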

Tests used:
Test in all cases: NCI anticancer screen, dose series, 48 h
MDA-MB-231 breast = tested on: MDA-MB-231 breast
HT29 colon = tested on: HT29 colon
OVCAR-4 ovarian = tested on: OVCAR-4 ovarian
SK-OV-3 ovarian = tested on: SK-OV-3 ovarian
IGROV1 ovarian = tested on: IGROV1 ovarian
MDA-MB-435 = tested on: MDA-MB-435
M14 melanoma = tested on: M14 melanoma
HCC-2998 colon = tested on: HCC-2998 colon
NCI-H226 lung = tested on: NCI-H226 lung
SF-268 CNS = tested on: SF-268 CNS
RPMI-8226 leukemia = tested on: RPMI-8226 leukemia
T-47D breast = tested on: T-47D breast
SNB-75 CNS = tested on: SNB-75 CNS
OVCAR-8 ovarian = tested on: OVCAR-8 ovarian
SF-539 CNS = tested on: SF-539 CNS
HL-60(TB) leukemia = tested on: HL-60(TB) leukemia
COLO 205 colon = tested on: COLO 205 colon
NCI-H522 lung = tested on: NCI-H522 lung
SNB-19 CNS = tested on: SNB-19 CNS
SW-620 colon = tested on: SW-620 colon
LOX IMVI melanoma = tested on: LOX IMVI melanoma
EKVX NSCLC = tested on: EKVX NSCLC
SK-MEL-5 melanoma = tested on: SK-MEL-5 melanoma
A498 renal = tested on: A498 renal
OVCAR-3 ovarian = tested on: OVCAR-3 ovarian
MOLT-4 leukemia = tested on: MOLT-4 leukemia
SK-MEL-28 melanoma = tested on: SK-MEL-28 melanoma
SF-295 CNS = tested on: SF-295 CNS
HCT-15 colon = tested on: HCT-15 colon
MCF7 breast = tested on: MCF7 breast
OVCAR-5 ovarian = tested on: OVCAR-5 ovarian
NCI/ADR-RES ovarian = tested on: NCI/ADR-RES ovarian
K-562 leukemia = tested on: K-562 leukemia
HCT-116 colon = tested on: HCT-116 colon
BT-549 breast = tested on: BT-549 breast
CAKI-1 renal = tested on: CAKI-1 renal
A549 NSCLC = tested on: A549 NSCLC
HS 578T breast = tested on: HS 578T breast
KM12 colon = tested on: KM12 colon
SR leukemia = tested on: SR leukemia
786-0 renal = tested on: 786-0 renal
HOP-92 NSCLC = tested on: HOP-92 NSCLC
MALME-3M melanoma = tested on: MALME-3M melanoma
UACC-257 melanoma = tested on: UACC-257 melanoma
UACC-62 melanoma = tested on: UACC-62 melanoma
TK-10 renal = tested on: TK-10 renal
CCRF-CEM leukemia = tested on: CCRF-CEM leukemia
SN12C renal = tested on: SN12C renal
SK-MEL-2 melanoma = tested on: SK-MEL-2 melanoma
NCI-H460 lung = tested on: NCI-H460 lung
PC-3 prostate = tested on: PC-3 prostate
U251 CNS = tested on: U251 CNS
RXF 393 renal = tested on: RXF 393 renal
HOP-62 NSCLC = tested on: HOP-62 NSCLC
DU-145 prostate = tested on: DU-145 prostate
UO-31 renal = tested on: UO-31 renal
ACHN renal = tested on: ACHN renal
NCI-H23 lung = tested on: NCI-H23 lung

## CN(C)CCCNc1c2ccccc2nc2c1oc1ccc(Cl)cc12
MDA-MB-231 breast
  GI50: 2 µM
  TGI: 5.69 µM
HT29 colon
  GI50: 1.03 µM
  TGI: 2.94 µM
OVCAR-4 ovarian
  GI50: 2.83 µM
  TGI: 14 µM
SK-OV-3 ovarian
  GI50: 4.53 µM
  TGI: 17.3 µM
IGROV1 ovarian
  GI50: 3.68 µM
  TGI: 16.2 µM
MDA-MB-435
  GI50: 3.91 µM
  TGI: 16.1 µM
M14 melanoma
  GI50: 1.75 µM
  TGI: 4.2 µM
HCC-2998 colon
  GI50: 1.43 µM
  TGI: 3.73 µM
NCI-H226 lung
  GI50: 4.18 µM
  TGI: 18.2 µM
SF-268 CNS
  GI50: 3.06 µM
  TGI: 16.5 µM
RPMI-8226 leukemia
  GI50: 2.66 µM
T-47D breast
  GI50: 6.18 µM
  TGI: 19.9 µM
SNB-75 CNS
  GI50: 3.67 µM
  TGI: 17.4 µM
OVCAR-8 ovarian
  GI50: 3.75 µM
  TGI: 20.2 µM
SF-539 CNS
  GI50: 3.31 µM
  TGI: 12.7 µM
HL-60(TB) leukemia
  GI50: 2.71 µM
  TGI: 10.1 µM
COLO 205 colon
  GI50: 1.94 µM
  TGI: 9.57 µM
NCI-H522 lung
  GI50: 3.73 µM
  TGI: 16.6 µM
SNB-19 CNS
  GI50: 4.95 µM
  TGI: 18.4 µM
SW-620 colon
  GI50: 0.777 µM
  TGI: 8.63 µM
LOX IMVI melanoma
  GI50: 1.64 µM
  TGI: 3.33 µM
EKVX NSCLC
  GI50: 5.22 µM
  TGI: 18.6 µM
SK-MEL-5 melanoma
  GI50: 12.5 µM
  TGI: 25 µM
A498 renal
  GI50: 9.15 µM
  TGI: 22.9 µM
OVCAR-3 ovarian
  GI50: 6.44 µM
  TGI: 20.2 µM
MOLT-4 leukemia
  GI50: 0.521 µM
  TGI: 18.9 µM
SK-MEL-28 melanoma
  GI50: 4.48 µM
  TGI: 16.2 µM
SF-295 CNS
  GI50: 4.6 µM
  TGI: 17.3 µM
HCT-15 colon
  GI50: 1.45 µM
  TGI: 6.5 µM
MCF7 breast
  GI50: 1.23 µM
  TGI: 4.59 µM
OVCAR-5 ovarian
  GI50: 5.24 µM
  TGI: 18.8 µM
NCI/ADR-RES ovarian
  GI50: 1.52 µM
  TGI: 10.8 µM
K-562 leukemia
  GI50: 1.25 µM
  TGI: 11.3 µM
HCT-116 colon
  GI50: 0.949 µM
  TGI: 2.32 µM
BT-549 breast
  GI50: 3.76 µM
  TGI: 14.3 µM
CAKI-1 renal
  GI50: 2.32 µM
  TGI: 13.3 µM
A549 NSCLC
  GI50: 3.43 µM
  TGI: 15.3 µM
HS 578T breast
  GI50: 4.65 µM
  TGI: 21.3 µM
KM12 colon
  GI50: 2.75 µM
  TGI: 14.9 µM
SR leukemia
  GI50: 2.19 µM
  TGI: 10.1 µM
786-0 renal
  GI50: 3.22 µM
  TGI: 14.4 µM
HOP-92 NSCLC
  GI50: 1.37 µM
  TGI: 6.59 µM
MALME-3M melanoma
  GI50: 4.5 µM
  TGI: 17.1 µM
UACC-257 melanoma
  GI50: 4.65 µM
  TGI: 17.2 µM
UACC-62 melanoma
  GI50: 10.9 µM
  TGI: 24.5 µM
TK-10 renal
  GI50: 7.35 µM
  TGI: 20.1 µM
CCRF-CEM leukemia
  GI50: 2.21 µM
  TGI: 12.6 µM
SN12C renal
  GI50: 2.58 µM
  TGI: 13.1 µM
SK-MEL-2 melanoma
  GI50: 4.2 µM
  TGI: 16.4 µM
NCI-H460 lung
  GI50: 1.05 µM
  TGI: 4.79 µM
PC-3 prostate
  GI50: 3.92 µM
  TGI: 15.8 µM
U251 CNS
  GI50: 3.69 µM
  TGI: 16.4 µM
RXF 393 renal
  GI50: 1.95 µM
  TGI: 6.74 µM
HOP-62 NSCLC
  GI50: 4.08 µM
  TGI: 17 µM
DU-145 prostate
  GI50: 4.1 µM
  TGI: 16.6 µM
UO-31 renal
  GI50: 3.15 µM
  TGI: 15.1 µM
ACHN renal
  GI50: 1.76 µM
  TGI: 15.6 µM

## Oc1ccc(CSc2nnc(-c3ccc(Oc4ccccc4)cc3)n2-c2ccccc2)c2cccnc12
MDA-MB-231 breast
  GI50: 0.355 µM
  TGI: 33 µM
HT29 colon
  GI50: 4.1 µM
  TGI: > 100 µM
OVCAR-4 ovarian
  GI50: 0.451 µM
  TGI: > 72.3 µM
SK-OV-3 ovarian
  GI50: 0.307 µM
IGROV1 ovarian
  GI50: 0.166 µM
  TGI: > 55.9 µM
MDA-MB-435
  GI50: 0.057 µM
  TGI: > 100 µM
M14 melanoma
  GI50: 0.0954 µM
  TGI: 1.12 µM
HCC-2998 colon
  GI50: 0.154 µM
  TGI: > 100 µM
NCI-H226 lung
  GI50: 0.369 µM
  TGI: > 100 µM
SF-268 CNS
  GI50: 0.0739 µM
  TGI: > 100 µM
RPMI-8226 leukemia
  GI50: 0.146 µM
  TGI: > 100 µM
T-47D breast
  GI50: 0.263 µM
  TGI: 9.18 µM
SNB-75 CNS
  GI50: 0.188 µM
  TGI: 22.7 µM
OVCAR-8 ovarian
  GI50: 0.146 µM
  TGI: > 46.5 µM
SF-539 CNS
  GI50: 0.23 µM
  TGI: 9.87 µM
HL-60(TB) leukemia
  GI50: 0.0798 µM
  TGI: 1.06 µM
COLO 205 colon
  GI50: 1.27 µM
  TGI: > 100 µM
NCI-H522 lung
  GI50: 0.226 µM
SNB-19 CNS
  GI50: 0.223 µM
  TGI: > 100 µM
SW-620 colon
  GI50: 0.182 µM
  TGI: > 100 µM
LOX IMVI melanoma
  GI50: 0.169 µM
  TGI: 7.18 µM
EKVX NSCLC
  GI50: 0.339 µM
  TGI: > 100 µM
SK-MEL-5 melanoma
  GI50: 0.222 µM
  TGI: 2.4 µM
A498 renal
  GI50: 0.641 µM
  TGI: 19.8 µM
MOLT-4 leukemia
  GI50: 0.1 µM
  TGI: > 38.5 µM
SK-MEL-28 melanoma
  GI50: 0.247 µM
  TGI: > 100 µM
SF-295 CNS
  GI50: 0.208 µM
  TGI: > 69.2 µM
HCT-15 colon
  GI50: 0.179 µM
  TGI: > 100 µM
MCF7 breast
  GI50: 0.0942 µM
  TGI: > 100 µM
OVCAR-5 ovarian
  GI50: 0.639 µM
  TGI: > 100 µM
NCI/ADR-RES ovarian
  GI50: 0.27 µM
  TGI: 6.99 µM
K-562 leukemia
  GI50: 0.155 µM
  TGI: > 53.1 µM
NCI-H23 lung
  GI50: 0.26 µM
  TGI: 25.6 µM
HCT-116 colon
  GI50: 0.0413 µM
  TGI: 16 µM
BT-549 breast
  GI50: 0.105 µM
  TGI: > 100 µM
CAKI-1 renal
  GI50: 0.313 µM
  TGI: 15.2 µM
A549 NSCLC
  GI50: 0.133 µM
  TGI: > 33.2 µM
HS 578T breast
  GI50: 0.325 µM
  TGI: > 100 µM
KM12 colon
  GI50: 0.176 µM
  TGI: > 100 µM
SR leukemia
  GI50: 0.0664 µM
  TGI: 20.3 µM
786-0 renal
  GI50: 0.527 µM
  TGI: 11.3 µM
HOP-92 NSCLC
  GI50: 0.213 µM
  TGI: 31.8 µM
MALME-3M melanoma
  GI50: 0.34 µM
  TGI: 11 µM
UACC-257 melanoma
  GI50: 0.186 µM
  TGI: 0.843 µM
UACC-62 melanoma
  GI50: 0.256 µM
  TGI: 1.13 µM
TK-10 renal
  GI50: 0.153 µM
  TGI: > 42.4 µM
CCRF-CEM leukemia
  GI50: 0.0729 µM
  TGI: > 100 µM
SN12C renal
  GI50: 0.275 µM
  TGI: > 100 µM
SK-MEL-2 melanoma
  GI50: 0.442 µM
  TGI: > 25.5 µM
NCI-H460 lung
  GI50: 0.0385 µM
PC-3 prostate
  GI50: 0.0834 µM
  TGI: > 100 µM
U251 CNS
  GI50: 0.0696 µM
  TGI: > 35.6 µM
RXF 393 renal
  GI50: 0.981 µM
  TGI: > 58.7 µM
HOP-62 NSCLC
  GI50: 0.304 µM
  TGI: > 34.6 µM
DU-145 prostate
  GI50: 0.34 µM
  TGI: > 100 µM
UO-31 renal
  GI50: 0.142 µM
  TGI: 2.45 µM
ACHN renal
  GI50: 0.137 µM
  TGI: 10.9 µM
